# In ChEMBL document CHEMBL4610097, “Daphnane Diterpenoids from Daphne genkwa Inhibit PI3K/Akt/mTOR Signaling and Induce Cell Cycle Arrest and Apoptosis in Human Colon Cancer Cells” (J Nat Prod, 2020):
# Activity calls are given as the source filed them. The calls are words filed in the database; no cut-off is given here.
# Tests used:
# [1] = system: SW-620; test: Induction of apoptosis in human SW620 cells assessed as early apoptotic cells at 2.96 uM after 24 hrs by annexin V/propidium iodide staining-based flow cytometric analysis (reference value: 0.36%); format: functional
# [2] = system: SW-620; test: Cytotoxicity against human SW620 cells after 24 hrs by MTT assay; format: functional, cell-based; settings: SW-620, 24 h
# [3] = system: SW-620; test: Induction of cell cycle arrest in human SW620 cells assessed as accumulation at G0/G1 phase at 11.84 uM after 24 hrs by propidium iodide staining-based flow cytometric analysis (reference value: 56.11%); format: functional
# [4] = system: SW-620; test: Induction of apoptosis in human SW620 cells assessed as early apoptotic cells at 5.92 uM after 24 hrs by annexin V/propidium iodide staining-based flow cytometric analysis (reference value: 0.36%); format: functional
# [5] = system: SW-620; test: Induction of cell cycle arrest in human SW620 cells assessed as accumulation at G2/M phase at 11.84 uM after 24 hrs by propidium iodide staining-based flow cytometric analysis (reference value: 20.06%); format: functional
# [6] = system: SW-620; test: Induction of cell cycle arrest in human SW620 cells assessed as accumulation at G0/G1 phase at 1.48 uM after 24 hrs by propidium iodide staining-based flow cytometric analysis (reference value: 56.11%); format: functional
# [7] = system: SW-620; test: Induction of cell cycle arrest in human SW620 cells assessed as accumulation at G0/G1 phase at 0.74 uM after 24 hrs by propidium iodide staining-based flow cytometric analysis (reference value: 56.11%); format: functional
# [8] = system: SW-620; test: Effect on AKT expression in human SW620 cells at 0.74 to 11.84 uM after 24 hrs by Western blot analysis; format: cell-based; settings: sw-620, 24 h
# [9] = system: SW-620; test: Induction of apoptosis in human SW620 cells assessed as late apoptotic cells at 0.74 uM after 24 hrs by annexin V/propidium iodide staining-based flow cytometric analysis (reference value: 2.40%); format: functional
# [10] = system: SW-620; test: Induction of cell cycle arrest in human SW620 cells assessed as accumulation at G2/M phase at 2.96 uM after 24 hrs by propidium iodide staining-based flow cytometric analysis (reference value: 20.06%); format: functional
# [11] = system: SW-620; test: Induction of apoptosis in human SW620 cells assessed as viable cells at 2.96 uM after 24 hrs by annexin V/propidium iodide staining-based flow cytometric analysis (reference value: 96.9%); format: functional; settings: SW-620, 24 h, read-out: Activity
# [12] = system: SW-620; test: Induction of apoptosis in human SW620 cells assessed as necrotic cells at 5.92 uM after 24 hrs by annexin V/propidium iodide staining-based flow cytometric analysis (reference value: 0.30%); format: functional
# [13] = system: SW-620; test: Induction of apoptosis in human SW620 cells assessed as necrotic cells at 11.84 uM after 24 hrs by annexin V/propidium iodide staining-based flow cytometric analysis (reference value: 0.30%); format: functional
# [14] = system: SW-620; test: Induction of cell cycle arrest in human SW620 cells assessed as accumulation at G2/M phase at 1.48 uM after 24 hrs by propidium iodide staining-based flow cytometric analysis (reference value: 20.06%); format: functional
# [15] = system: SW-620; test: Induction of morphological changes in human SW620 cells assessed as appearance of apoptotic bodies at 2.96 to 5.92 uM after 24 hrs by acridine orange/propidium iodide staining based microscopic analysis; format: functional, cell-based
compound,measurement,setting,value
C=C(C)[C@@]12O[C@@]3(/C=C/C=C/CCCCC)O[C@@H]1[C@@H]1[C@H](O)[C@@](O)(CO)[C@@H](O)[C@]4(O)C(=O)C(C)=C[C@H]4[C@@]1(O3)[C@H](C)[C@H]2OC(=O)c1ccccc1,Activity,[1],6.18%
same,IC50,[2],3000 nM
same,Activity,[3],88.08%
same,Activity,[4],4.67%
same,Activity,[5],2.43%
same,Activity,[6],78.73%
same,Activity,[7],76.93%
same,Activity,[8],Non-Toxic
same,Activity,[9],15.9%
same,Activity,[10],5.17%
same,viability at 2.96 µM,[11],44.1%
same,Activity,[12],0.25%
same,Activity,[13],1.64%
same,Activity,[14],7.08%
same,Activity,[15],Active
